Reference: ChEMBL document CHEMBL4879554, “Data for DCP probe GNE-2256” (2021)

Assays:
[1] = target: Calcium/calmodulin-dependent protein kinase kinase 1 (Homo sapiens) (UniProt Q8N5S9); assay: CAMKK1 Kinase panel; conditions: Compound concentration 1.0 uM
[2] = target: Vascular endothelial growth factor receptor 2 (Homo sapiens) (UniProt P35968); assay: KDR Kinase panel; conditions: Compound concentration 1.0 uM
[3] = target: Muscle, skeletal receptor tyrosine-protein kinase (Homo sapiens) (UniProt O15146); assay: MuSK Kinase panel; conditions: Compound concentration 1.0 uM
[4] = target: Activin receptor type-1 (Homo sapiens) (UniProt Q04771); assay: ALK2 Kinase panel; conditions: Compound concentration 1.0 uM
[5] = target: Protein kinase C beta type (Homo sapiens) (UniProt P05771); assay: PKC_beta1 Kinase panel; conditions: Compound concentration 1.0 uM
[6] = target: Casein kinase I isoform epsilon (Homo sapiens) (UniProt P49674); assay: CK1_epsilon1 Kinase panel; conditions: Compound concentration 1.0 uM
[7] = target: Serine/threonine-protein kinase WNK2 (Homo sapiens) (UniProt Q9Y3S1); assay: WNK2 Kinase panel; conditions: Compound concentration 1.0 uM
[8] = target: Histamine H1 receptor (Homo sapiens) (UniProt P35367); conditions: Compound concentration 10.0 uM
[9] = target: Sodium-dependent noradrenaline transporter (Homo sapiens) (UniProt P23975); conditions: Compound concentration 10.0 uM
[10] = target: SRSF protein kinase 3 (Homo sapiens) (UniProt Q9UPE1); assay: MSSK1 Kinase panel; conditions: Compound concentration 1.0 uM
[11] = target: D(1B) dopamine receptor (Homo sapiens) (UniProt P21918); conditions: Compound concentration 10.0 uM
[12] = target: Alpha-2C adrenergic receptor (Homo sapiens) (UniProt P18825); conditions: Compound concentration 10.0 uM
[13] = target: Protein kinase C alpha type (Homo sapiens) (UniProt P17252); assay: PKC_alpha Kinase panel; conditions: Compound concentration 1.0 uM
[14] = target: Dual specificity protein kinase CLK2 (Homo sapiens) (UniProt P49760); assay: CLK2 Kinase panel; conditions: Compound concentration 1.0 uM
[15] = target: Mitogen-activated protein kinase kinase kinase kinase 5 (Homo sapiens) (UniProt Q9Y4K4); assay: KHS1 Kinase panel; conditions: Compound concentration 1.0 uM
[16] = target: Tyrosine-protein kinase receptor TYRO3 (Homo sapiens) (UniProt Q06418); assay: Rse Kinase panel; conditions: Compound concentration 1.0 uM
[17] = target: T1, High affinity nerve growth factor receptor (Homo sapiens, UniProt P04629); assay: NanoBRET assay (NTRK1v2, SGC Frankfurt)
Target sequence in this assay (P04629 whole entry): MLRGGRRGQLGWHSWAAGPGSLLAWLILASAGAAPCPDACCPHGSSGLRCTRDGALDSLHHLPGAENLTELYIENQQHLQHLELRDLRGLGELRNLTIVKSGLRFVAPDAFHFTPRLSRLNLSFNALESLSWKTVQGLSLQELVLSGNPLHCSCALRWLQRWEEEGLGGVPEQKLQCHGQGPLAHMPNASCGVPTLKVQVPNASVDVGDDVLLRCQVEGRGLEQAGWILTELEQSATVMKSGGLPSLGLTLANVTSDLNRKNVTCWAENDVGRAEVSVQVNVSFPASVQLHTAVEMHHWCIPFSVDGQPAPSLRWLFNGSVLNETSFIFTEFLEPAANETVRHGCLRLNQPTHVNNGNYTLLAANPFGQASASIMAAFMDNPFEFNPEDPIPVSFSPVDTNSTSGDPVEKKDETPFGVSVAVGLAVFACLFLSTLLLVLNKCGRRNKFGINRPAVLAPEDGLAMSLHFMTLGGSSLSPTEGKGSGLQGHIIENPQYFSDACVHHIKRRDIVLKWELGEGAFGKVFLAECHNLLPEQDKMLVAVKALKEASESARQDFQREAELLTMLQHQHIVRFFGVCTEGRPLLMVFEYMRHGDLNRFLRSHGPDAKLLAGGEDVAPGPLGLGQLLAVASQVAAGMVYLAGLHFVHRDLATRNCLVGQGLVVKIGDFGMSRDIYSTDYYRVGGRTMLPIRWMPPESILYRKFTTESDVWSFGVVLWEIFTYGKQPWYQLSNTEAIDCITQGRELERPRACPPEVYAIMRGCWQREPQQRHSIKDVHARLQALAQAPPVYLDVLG

[18] = target: Death-associated protein kinase 3 (Homo sapiens) (UniProt O43293); assay: ZIPK Kinase panel; conditions: Compound concentration 1.0 uM
[19] = target: Mitogen-activated protein kinase kinase kinase kinase 1 (Homo sapiens) (UniProt Q92918); assay: HPK1 Kinase panel; conditions: Compound concentration 1.0 uM
[20] = target: Beta-2 adrenergic receptor (Homo sapiens) (UniProt P07550); conditions: Compound concentration 10.0 uM
[21] = target: Serine/threonine-protein kinase 33 (Homo sapiens) (UniProt Q9BYT3); assay: STK33 Kinase panel; conditions: Compound concentration 1.0 uM
[22] = target: Mitogen-activated protein kinase 9 (Homo sapiens) (UniProt P45984); assay: JNK2 Kinase panel; conditions: Compound concentration 1.0 uM
[23] = target: D(4) dopamine receptor (Homo sapiens) (UniProt P21917); conditions: Compound concentration 10.0 uM
[24] = target: G protein-coupled receptor kinase 5 (Homo sapiens) (UniProt P34947); assay: GRK5 Kinase panel; conditions: Compound concentration 1.0 uM
[25] = target: Tyrosine-protein kinase Fes/Fps (Homo sapiens) (UniProt P07332); assay: Fes Kinase panel; conditions: Compound concentration 1.0 uM
[26] = target: Mitogen-activated protein kinase 1 (Homo sapiens) (UniProt P28482); assay: ERK2 Kinase panel; conditions: Compound concentration 1.0 uM
[27] = target: 5-hydroxytryptamine receptor 5A (Homo sapiens) (UniProt P47898); conditions: Compound concentration 10.0 uM
[28] = target: Dual specificity mitogen-activated protein kinase kinase 1 (Homo sapiens) (UniProt Q02750); assay: MEK1 Kinase panel; conditions: Compound concentration 1.0 uM
[29] = target: Mitogen-activated protein kinase 8 (Homo sapiens) (UniProt P45983); assay: JNK1_alpha1 Kinase panel; conditions: Compound concentration 1.0 uM
[30] = target: Cyclin-dependent kinase 1/cyclin B (Homo sapiens) (UniProt P06493+P14635+Q8WWL7+O95067); assay: CDK1/cyclinB Kinase panel; type: protein-complex assay; conditions: Compound concentration 1.0 uM
[31] = target: Rho-associated protein kinase 1 (Homo sapiens) (UniProt Q13464); assay: ROCK1 Kinase panel; conditions: Compound concentration 1.0 uM
[32] = target: Fibroblast growth factor receptor 1 (Homo sapiens) (UniProt P11362); assay: FGFR1 Kinase panel; conditions: Compound concentration 1.0 uM
[33] = target: Serine/threonine-protein kinase 3 (Homo sapiens) (UniProt Q13188); assay: MST2 Kinase panel; conditions: Compound concentration 1.0 uM
[34] = target: Tyrosine-protein kinase TXK (Homo sapiens) (UniProt P42681); assay: TXK Kinase panel; conditions: Compound concentration 1.0 uM
[35] = target: Muscarinic acetylcholine receptor M1 (Homo sapiens) (UniProt P11229); conditions: Compound concentration 10.0 uM
[36] = target: MAP kinase-activated protein kinase 2 (Homo sapiens) (UniProt P49137); assay: MAPKAPK2 Kinase panel; conditions: Compound concentration 1.0 uM
[37] = target: Dual specificity protein kinase TTK (Homo sapiens) (UniProt P33981); assay: TTK Kinase panel; conditions: Compound concentration 1.0 uM
[38] = target: Receptor tyrosine-protein kinase erbB-4 (Homo sapiens) (UniProt Q15303); assay: ErbB4 Kinase panel; conditions: Compound concentration 1.0 uM
[39] = target: Cyclin-dependent kinase 2/cyclin A (Homo sapiens) (UniProt P24941+P20248+P78396); assay: CDK2/cyclinA Kinase panel; type: protein-complex assay; conditions: Compound concentration 1.0 uM
[40] = target: Mitogen-activated protein kinase 14 (Homo sapiens) (UniProt Q16539); assay: p38_alpha(direct) Kinase panel; conditions: Compound concentration 1.0 uM
[41] = target: Cyclin-dependent kinase 7/ cyclin H (Homo sapiens) (UniProt P51946+P50613); assay: CDK7/cyclinH Kinase panel; type: protein-complex assay; conditions: Compound concentration 1.0 uM
Homo sapiens = species on record: Homo sapiens; assay: PKA Kinase panel; conditions: Compound concentration 1.0 uM
[42] = target: Dual specificity protein kinase CLK3 (Homo sapiens) (UniProt P49761); assay: CLK3 Kinase panel; conditions: Compound concentration 1.0 uM
[43] = target: Calcium/calmodulin-dependent protein kinase type IV (Homo sapiens) (UniProt Q16566); assay: CamKIV Kinase panel; conditions: Compound concentration 1.0 uM
[44] = target: SRSF protein kinase 1 (Homo sapiens) (UniProt Q96SB4); assay: SRPK1 Kinase panel; conditions: Compound concentration 1.0 uM
[45] = target: Serine/threonine-protein kinase 24 (Homo sapiens) (UniProt Q9Y6E0); assay: MST3 Kinase panel; conditions: Compound concentration 1.0 uM
[46] = target: Protein kinase C epsilon type (Homo sapiens) (UniProt Q02156); assay: PKC_epsilon Kinase panel; conditions: Compound concentration 1.0 uM
[47] = target: Receptor-interacting serine/threonine-protein kinase 2 (Homo sapiens) (UniProt O43353); assay: RIPK2 Kinase panel; conditions: Compound concentration 1.0 uM
[48] = target: Casein kinase I isoform gamma-2 (Homo sapiens) (UniProt P78368); assay: CK1_gamma2 Kinase panel; conditions: Compound concentration 1.0 uM
[49] = target: Tyrosine-protein kinase Fgr (Homo sapiens) (UniProt P09769); assay: Fgr Kinase panel; conditions: Compound concentration 1.0 uM
[50] = target: Serine/threonine-protein kinase 26 (Homo sapiens) (UniProt Q9P289); assay: MST4 Kinase panel; conditions: Compound concentration 1.0 uM
[51] = target: Dual specificity tyrosine-phosphorylation-regulated kinase 3 (Homo sapiens) (UniProt O43781); assay: DYRK3 Kinase panel; conditions: Compound concentration 1.0 uM
[52] = target: T1, High affinity nerve growth factor receptor; assay: TrkA Kinase panel
[53] = target: Casein kinase I isoform gamma-1 (Homo sapiens) (UniProt Q9HCP0); assay: CK1_gamma1 Kinase panel; conditions: Compound concentration 1.0 uM

D(1B) dopamine receptor (Homo sapiens), sequence (P21918 whole entry): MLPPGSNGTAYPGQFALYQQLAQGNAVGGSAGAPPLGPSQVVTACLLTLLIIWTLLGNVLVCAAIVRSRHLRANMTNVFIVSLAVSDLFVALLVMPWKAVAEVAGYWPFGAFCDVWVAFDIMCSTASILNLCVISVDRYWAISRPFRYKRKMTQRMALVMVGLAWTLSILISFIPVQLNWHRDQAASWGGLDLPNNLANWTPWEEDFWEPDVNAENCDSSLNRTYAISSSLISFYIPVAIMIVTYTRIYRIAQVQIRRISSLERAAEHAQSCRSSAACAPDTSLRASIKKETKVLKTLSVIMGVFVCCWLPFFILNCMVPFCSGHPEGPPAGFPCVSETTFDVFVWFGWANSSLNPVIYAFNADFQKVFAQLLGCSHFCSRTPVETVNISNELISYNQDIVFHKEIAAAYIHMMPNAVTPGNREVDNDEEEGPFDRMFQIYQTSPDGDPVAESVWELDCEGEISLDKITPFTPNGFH
Mitogen-activated protein kinase 9 (Homo sapiens), sequence (P45984 whole entry, looked up): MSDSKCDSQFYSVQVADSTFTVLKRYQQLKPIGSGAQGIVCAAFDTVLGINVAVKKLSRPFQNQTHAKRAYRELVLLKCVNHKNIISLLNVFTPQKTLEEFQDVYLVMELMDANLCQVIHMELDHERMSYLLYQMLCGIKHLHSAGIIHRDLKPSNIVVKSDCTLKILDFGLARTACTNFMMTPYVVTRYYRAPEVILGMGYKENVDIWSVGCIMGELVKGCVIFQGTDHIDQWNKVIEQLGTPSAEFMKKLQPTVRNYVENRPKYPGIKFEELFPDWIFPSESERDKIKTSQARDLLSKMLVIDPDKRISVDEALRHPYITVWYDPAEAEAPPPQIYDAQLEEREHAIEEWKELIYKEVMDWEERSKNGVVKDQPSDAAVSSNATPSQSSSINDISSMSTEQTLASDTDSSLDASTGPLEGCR
Calcium/calmodulin-dependent protein kinase kinase 1 (Homo sapiens), sequence (Q8N5S9 whole entry, looked up): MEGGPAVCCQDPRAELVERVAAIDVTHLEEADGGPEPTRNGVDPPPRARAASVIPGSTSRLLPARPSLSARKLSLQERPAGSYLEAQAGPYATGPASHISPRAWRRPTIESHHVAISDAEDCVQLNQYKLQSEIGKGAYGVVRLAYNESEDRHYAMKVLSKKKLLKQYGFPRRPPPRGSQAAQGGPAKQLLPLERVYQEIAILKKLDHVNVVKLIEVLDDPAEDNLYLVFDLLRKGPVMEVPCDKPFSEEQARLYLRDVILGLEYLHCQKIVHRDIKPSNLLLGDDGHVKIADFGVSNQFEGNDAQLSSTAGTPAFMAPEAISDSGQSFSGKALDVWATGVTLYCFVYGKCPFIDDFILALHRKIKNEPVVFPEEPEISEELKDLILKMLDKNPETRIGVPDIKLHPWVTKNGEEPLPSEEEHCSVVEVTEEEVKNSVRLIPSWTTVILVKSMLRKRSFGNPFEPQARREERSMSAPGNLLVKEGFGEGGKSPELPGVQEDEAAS
Tyrosine-protein kinase receptor TYRO3 (Homo sapiens), sequence (Q06418 whole entry): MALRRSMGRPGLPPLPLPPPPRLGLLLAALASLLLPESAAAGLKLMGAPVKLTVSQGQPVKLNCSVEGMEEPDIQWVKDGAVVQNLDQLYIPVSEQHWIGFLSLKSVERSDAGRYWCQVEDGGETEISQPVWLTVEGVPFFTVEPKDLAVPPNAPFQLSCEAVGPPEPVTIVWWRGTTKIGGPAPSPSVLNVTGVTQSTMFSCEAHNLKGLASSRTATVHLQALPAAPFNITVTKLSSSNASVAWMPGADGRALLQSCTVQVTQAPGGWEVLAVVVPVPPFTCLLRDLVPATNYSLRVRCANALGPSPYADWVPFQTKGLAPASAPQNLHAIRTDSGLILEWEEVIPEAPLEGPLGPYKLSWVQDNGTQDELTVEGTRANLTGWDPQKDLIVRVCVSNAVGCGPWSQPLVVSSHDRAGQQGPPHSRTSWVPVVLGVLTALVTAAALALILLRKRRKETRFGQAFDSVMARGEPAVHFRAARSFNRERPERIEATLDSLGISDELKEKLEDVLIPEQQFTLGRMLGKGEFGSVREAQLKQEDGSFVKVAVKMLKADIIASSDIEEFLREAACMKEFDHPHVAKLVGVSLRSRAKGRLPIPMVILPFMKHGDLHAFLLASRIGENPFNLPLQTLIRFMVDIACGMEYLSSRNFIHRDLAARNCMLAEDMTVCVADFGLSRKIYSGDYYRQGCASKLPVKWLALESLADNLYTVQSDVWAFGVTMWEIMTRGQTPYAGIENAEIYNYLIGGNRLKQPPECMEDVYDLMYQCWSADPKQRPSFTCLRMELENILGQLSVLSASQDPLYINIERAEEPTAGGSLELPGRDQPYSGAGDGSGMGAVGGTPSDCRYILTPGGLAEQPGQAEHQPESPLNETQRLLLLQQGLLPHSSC
5-hydroxytryptamine receptor 5A (Homo sapiens), sequence (P47898 whole entry): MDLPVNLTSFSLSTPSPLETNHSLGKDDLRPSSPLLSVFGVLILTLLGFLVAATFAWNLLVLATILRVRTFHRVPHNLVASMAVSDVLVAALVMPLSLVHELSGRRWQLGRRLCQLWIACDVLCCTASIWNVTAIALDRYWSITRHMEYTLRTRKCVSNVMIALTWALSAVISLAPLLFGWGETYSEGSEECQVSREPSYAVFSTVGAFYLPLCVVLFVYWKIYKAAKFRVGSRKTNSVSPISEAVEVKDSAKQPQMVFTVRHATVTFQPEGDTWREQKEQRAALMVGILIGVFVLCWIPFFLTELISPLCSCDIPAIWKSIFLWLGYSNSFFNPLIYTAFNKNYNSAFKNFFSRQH
Dual specificity protein kinase CLK2 (Homo sapiens), sequence (P49760 whole entry, looked up): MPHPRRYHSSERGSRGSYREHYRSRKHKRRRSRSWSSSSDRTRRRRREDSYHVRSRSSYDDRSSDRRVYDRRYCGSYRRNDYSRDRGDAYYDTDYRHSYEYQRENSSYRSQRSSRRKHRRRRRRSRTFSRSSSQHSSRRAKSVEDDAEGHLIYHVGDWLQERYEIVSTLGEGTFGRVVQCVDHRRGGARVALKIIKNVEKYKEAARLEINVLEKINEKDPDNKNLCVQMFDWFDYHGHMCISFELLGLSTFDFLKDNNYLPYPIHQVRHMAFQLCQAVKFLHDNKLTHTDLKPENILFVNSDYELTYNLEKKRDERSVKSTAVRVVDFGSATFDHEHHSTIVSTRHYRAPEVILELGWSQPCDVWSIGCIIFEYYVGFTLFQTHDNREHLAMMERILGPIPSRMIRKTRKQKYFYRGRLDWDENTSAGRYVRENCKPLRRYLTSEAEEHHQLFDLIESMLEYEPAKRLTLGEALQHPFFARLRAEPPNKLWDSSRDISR
Casein kinase I isoform gamma-2 (Homo sapiens), sequence (P78368 whole entry, looked up, canonical isoform): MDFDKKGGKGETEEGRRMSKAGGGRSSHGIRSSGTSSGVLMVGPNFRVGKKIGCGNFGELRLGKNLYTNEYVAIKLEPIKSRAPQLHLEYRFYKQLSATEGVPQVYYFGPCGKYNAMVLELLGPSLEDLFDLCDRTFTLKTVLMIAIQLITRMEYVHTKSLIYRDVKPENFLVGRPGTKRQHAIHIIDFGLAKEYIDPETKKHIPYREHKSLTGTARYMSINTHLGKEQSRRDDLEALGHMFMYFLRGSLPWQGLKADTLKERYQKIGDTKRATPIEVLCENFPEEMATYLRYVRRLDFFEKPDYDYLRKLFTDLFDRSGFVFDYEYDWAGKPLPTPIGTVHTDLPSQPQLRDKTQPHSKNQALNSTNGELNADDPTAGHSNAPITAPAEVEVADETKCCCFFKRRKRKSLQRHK
D(4) dopamine receptor (Homo sapiens), sequence (P21917 whole entry): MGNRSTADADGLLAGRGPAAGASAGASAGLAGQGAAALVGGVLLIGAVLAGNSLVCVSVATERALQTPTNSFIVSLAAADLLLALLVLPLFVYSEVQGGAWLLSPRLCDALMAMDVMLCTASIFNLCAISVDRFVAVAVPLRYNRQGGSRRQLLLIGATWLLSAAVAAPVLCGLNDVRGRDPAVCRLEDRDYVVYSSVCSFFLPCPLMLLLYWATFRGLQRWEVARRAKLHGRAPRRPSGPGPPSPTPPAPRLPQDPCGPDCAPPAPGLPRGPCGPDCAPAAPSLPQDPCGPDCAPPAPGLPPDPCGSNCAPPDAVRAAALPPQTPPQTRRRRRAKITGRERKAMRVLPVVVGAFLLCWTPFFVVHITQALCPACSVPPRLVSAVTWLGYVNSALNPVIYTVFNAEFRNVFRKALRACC

SMILES: CC(C)(O)[C@H](F)CN1Cc2cc(NC(=O)c3cnn4cccnc34)c(N3CCOCC3)cc2C1=O
- inhibition [1]: 3.5%
- inhibition [2]: 17%
- inhibition [3]: 13%
- inhibition [4]: 8%
- inhibition [5]: 4%
- inhibition [6]: 5.5%
- inhibition [7]: 2.5%
- inhibition [8]: 17.7%
- inhibition [9]: 2.12%
- inhibition [10]: 2.5%
- inhibition [11]: -6.56%
- inhibition [12]: -8.65%
- inhibition [13]: 11%
- inhibition [14]: 20.3%
- inhibition [15]: 36.5%
- inhibition [16]: 18%
- EC50 [17]: 11000 nM (not active)
- inhibition [18]: 3.5%
- inhibition [19]: 13.3%
- inhibition [20]: 3.53%
- inhibition [21]: 3.5%
- inhibition [22]: 2.5%
- inhibition [23]: -9.22%
- inhibition [24]: -2%
- inhibition [25]: 19%
- inhibition [26]: 0.5%
- inhibition [27]: -0.55%
- inhibition [28]: 20.5%
- inhibition [29]: -1.5%
- inhibition [30]: 2.5%
- inhibition [31]: 5%
- inhibition [32]: 5.5%
- inhibition [33]: 7%
- inhibition [34]: 34%
- inhibition [35]: -9.03%
- inhibition [36]: 9.5%
- inhibition [37]: 13%
- inhibition [38]: 5%
- inhibition [39]: 3%
- inhibition [40]: 4%
- inhibition [41]: 4%
- inhibition (Homo sapiens): 5%
- inhibition [42]: 10%
- inhibition [43]: -6%
- inhibition [44]: 1.5%
- inhibition [45]: 5.5%
- inhibition [46]: 13%
- inhibition [47]: 22.5%
- inhibition [48]: 5%
- inhibition [49]: 53%
- inhibition [50]: 2%
- inhibition [51]: 2%
- IC50 [52]: 313 nM
- inhibition ([52]; Compound concentration 1.0 uM): 71%
- inhibition [53]: -3.5%
